Measured values: ChEMBL document CHEMBL1146935, “A novel series of urea-based peptidomimetic calpain inhibitors” (Bioorg Med Chem Lett, 2006)

Legend:
[1] = target: T1, Calpain-1 catalytic subunit (Sus scrofa, UniProt P35750); test: Inhibition of mu calpain in porcine erythrocyte
T1 sequence (P35750 whole entry): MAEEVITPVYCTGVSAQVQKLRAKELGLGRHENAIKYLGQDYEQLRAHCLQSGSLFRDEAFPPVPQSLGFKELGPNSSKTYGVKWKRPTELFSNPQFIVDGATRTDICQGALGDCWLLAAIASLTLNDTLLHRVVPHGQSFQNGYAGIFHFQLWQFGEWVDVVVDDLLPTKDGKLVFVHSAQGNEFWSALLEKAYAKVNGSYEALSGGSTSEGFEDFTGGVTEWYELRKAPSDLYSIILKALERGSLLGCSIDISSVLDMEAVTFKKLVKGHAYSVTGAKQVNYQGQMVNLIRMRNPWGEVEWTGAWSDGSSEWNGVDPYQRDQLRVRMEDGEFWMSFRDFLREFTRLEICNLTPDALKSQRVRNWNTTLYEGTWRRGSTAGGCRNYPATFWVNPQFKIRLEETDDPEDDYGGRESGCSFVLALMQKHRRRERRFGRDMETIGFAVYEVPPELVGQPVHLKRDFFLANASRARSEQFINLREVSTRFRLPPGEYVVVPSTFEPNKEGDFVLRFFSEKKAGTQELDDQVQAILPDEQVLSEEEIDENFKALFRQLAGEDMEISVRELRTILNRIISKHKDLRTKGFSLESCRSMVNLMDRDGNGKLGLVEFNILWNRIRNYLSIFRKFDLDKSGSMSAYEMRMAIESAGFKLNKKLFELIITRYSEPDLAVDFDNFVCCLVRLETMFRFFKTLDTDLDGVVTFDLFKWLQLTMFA

Sus scrofa = species: Sus scrofa; test: Inhibition of mu calpain in porcine erythrocyte at 100 uM
Cathepsin B = Cathepsin B (Homo sapiens, UniProt P07858); test: Inhibition of cathepsin B from human brain
[2] = Selectivity for porcine mu calpain over human cathepsin B

Compound | Ki [1] | inhibition (Sus scrofa) | Ki (Cathepsin B) | Ratio Ki [2]
O=C[C@H](Cc1ccccc1)NC(=O)N(CCOCc1ccccc1)Cc1ccccc1 | 6650 nM | – | – | –
CC(C)N(CCOCc1ccccc1)C(=O)N[C@H](C=O)Cc1ccccc1 | 230 nM | – | 22100 nM | 96.1
CC(C)CC(C(=O)N[C@H](C=O)Cc1ccccc1)C(=O)OCc1ccccc1 (some centres not stated) | 15 nM | – | 120 nM | 8
CC(C)CN(CCOCc1ccccc1)C(=O)NCC=O | 88700 nM | – | – | –
CC(C)CN(CCOCc1ccccc1)C(=O)N[C@H](C=O)C(C)C | 9270 nM | – | – | –
CCN(CCOCc1ccccc1)C(=O)N[C@H](C=O)Cc1ccccc1 | 1150 nM | – | – | –
CN(CCOCc1ccccc1)C(=O)N[C@H](C=O)Cc1ccccc1 | 6690 nM | – | – | –
CC(C)CN(CCOCc1ccccc1)C(=O)N[C@H](C=O)Cc1ccccc1 | 150 nM | – | 33300 nM | 222

The remaining lines, values ahead:

Ki [1] | inhibition (Sus scrofa) | Ki (Cathepsin B) | Ratio Ki [2] | Compound
– | 13% | – | – | CC(C)NC(=O)N[C@H](C=O)Cc1ccccc1
6820 nM | – | – | – | CC(C)N(Cc1ccccc1)C(=O)N[C@H](C=O)Cc1ccccc1
1160 nM | – | – | – | CC(C)N(CCCc1ccccc1)C(=O)N[C@H](C=O)Cc1ccccc1
10 nM | – | 20 nM | 2 | CC(C)C(C(=O)N[C@H](C=O)Cc1ccccc1)C(=O)OCc1ccccc1 (some centres not stated)
2350 nM | – | – | – | CC(C)N(CCc1ccccc1)C(=O)N[C@H](C=O)Cc1ccccc1
400 nM | – | – | – | CC(C)N(CCCCc1ccccc1)C(=O)N[C@H](C=O)Cc1ccccc1
